Assay results: patent US10597388B2, “Pyridazinone herbicides” (FMC CORPORATION, priority 2014, dated 2020)

How the values were obtained:
Experiment in all cases: Test C greenhouse herbicide test, pre- and postemergence
Format in all cases: in vivo
[1] = test system: barnyardgrass (Echinochloa crus-galli)
How it was run: (§1)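 Visual ratings on a 0 to 100 scale (0 = no effect, 100 = complete control) versus untreated controls, scored 13–15 d after treatment. Soil-applied preemergence to seeded loam/sand; foliar postemergence to 1- to 4-leaf plants (2–18 cm) in peat-vermiculite mix; compounds formulated in solvent plus surfactant.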

[2] = test system: blackgrass (Alopecurus myosuroides)
How it was run: as §1

corn (Zea mays) = test system: corn (Zea mays)
How it was run: as §1

[3] = test system: crabgrass, large (large crabgrass, Digitaria sanguinalis)
How it was run: as §1

[4] = test system: foxtail, giant (giant foxtail, Setaria faberii)
How it was run: as §1

[5] = test system: galium (catchweed bedstraw, Galium aparine)
How it was run: as §1

[6] = test system: johnsongrass (Sorghum halepense)
How it was run: as §1

[7] = test system: nutsedge, yellow (yellow nutsedge, Cyperus esculentus)
How it was run: as §1

[8] = test system: ryegrass, Italian (Italian ryegrass, Lolium multiflorum)
How it was run: as §1

soybean (Glycine max) = test system: soybean (Glycine max)
How it was run: as §1

[9] = test system: velvetleaf (Abutilon theophrasti)
How it was run: as §1

[10] = test system: wheat (winter wheat, Triticum aestivum)
How it was run: as §1

[11] = Postemergence, 31 g ai/ha, scale 0 to 100 (0 no effect, 100 complete control)
[12] = Postemergence, 62 g ai/ha, 0 to 100 scale (0 no effect, 100 complete control)
[13] = Postemergence, 250 g ai/ha, scale 0 to 100, 0 is no effect, 100 is complete control
[14] = postemergence, 125 g ai/ha, scale 0 to 100, 0 no effect, 100 complete control

With `Cc1nn(C)c(=O)c(-c2c([N+](=O)[O-])ccc3ccccc23)c1O` [Compound 165] the “Plant response rating, Barnyardgrass” value [1, 11] was 10, the “Barnyardgrass plant response rating” value [1, 12] was 15 and the “Plant response rating, Barnyardgrass” value [1, 13] was 25. The “Barnyardgrass plant response rating” value [1, 14] was 25, the “Plant response rating, Blackgrass” value [2, 11] was 5 and the “Blackgrass plant response rating” value [2, 12] was 15. The “Plant response rating, Blackgrass” value [2, 13] was 25, the “Blackgrass plant response rating” value [2, 14] was 20 and the “Plant response rating, Corn” value (corn (Zea mays); [11]) was 0. For the same compound, the “Corn plant response rating” value (corn (Zea mays); [12]) was 0, the “Plant response rating, Corn” value (corn (Zea mays); [13]) was 5 and the “Corn plant response rating” value (corn (Zea mays); [14]) was 0. For the same compound, the “Plant response rating, Crabgrass, Large” value [3, 11] was 0, the “Crabgrass, Large plant response rating” value [3, 12] was 5 and the “Plant response rating, Crabgrass, Large” value [3, 13] was 20. For the same compound, the “Crabgrass, Large plant response rating” value [3, 14] was 20, the “Plant response rating, Foxtail, Giant” value [4, 11] was 0 and the “Foxtail, Giant plant response rating” value [4, 12] was 5. The “Plant response rating, Foxtail, Giant” value [4, 13] was 25, the “Foxtail, Giant plant response rating” value [4, 14] was 15 and the “Plant response rating, Galium” value [5, 11] was 85. The “Galium plant response rating” value [5, 12] was 85, the “Plant response rating, Galium” value [5, 13] was 100 and the “Galium plant response rating” value [5, 14] was 98. For the same compound, the “Plant response rating, Johnsongrass” value [6, 11] was 0, the “Johnsongrass plant response rating” value [6, 12] was 5 and the “Plant response rating, Johnsongrass” value [6, 13] was 15. For the same compound, the “Johnsongrass plant response rating” value [6, 14] was 10, the “Plant response rating, Nutsedge, Yellow” value [7, 11] was 20 and the “Nutsedge, Yellow plant response rating” value [7, 12] was 30. For the same compound, the “Plant response rating, Nutsedge, Yellow” value [7, 13] was 35, the “Nutsedge, Yellow plant response rating” value [7, 14] was 25 and the “Plant response rating, Ryegrass, Italian” value [8, 11] was 40. For the same compound, the “Ryegrass, Italian plant response rating” value [8, 12] was 50, the “Plant response rating, Ryegrass, Italian” value [8, 13] was 70 and the “Ryegrass, Italian plant response rating” value [8, 14] was 55. The “Plant response rating, Soybean” value (soybean (Glycine max); [11]) was 10, the “Soybean plant response rating” value (soybean (Glycine max); [12]) was 10 and the “Plant response rating, Soybean” value (soybean (Glycine max); [13]) was 15. For the same compound, the “Soybean plant response rating” value (soybean (Glycine max); [14]) was 15, the “Plant response rating, Velvetleaf” value [9, 11] was 20 and the “Velvetleaf plant response rating” value [9, 12] was 25. For the same compound, the “Plant response rating, Velvetleaf” value [9, 13] was 50, the “Velvetleaf plant response rating” value [9, 14] was 20 and the “Plant response rating, Wheat” value [10, 11] was 5. For the same compound, the “Wheat plant response rating” value [10, 12] was 5, the “Plant response rating, Wheat” value [10, 13] was 15 and the “Wheat plant response rating” value [10, 14] was 10.
